Data as given in the supplement of paper PMC10307832.

Assays:
Assay in all cases: relative viability (nuclei count vs DMSO), 5 days (fraction); higher = more cells survive
Vorinostat + Dasatinib = compound: O=C(CCCCCCC(=O)Nc1ccccc1)NO [Vorinostat] + Cc1nc(Nc2ncc(C(=O)Nc3c(C)cccc3Cl)s2)cc(N2CCN(CCO)CC2)n1 [Dasatinib] (partner 0.075 µM)
In short: (§1)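 Lung cancer cell lines were seeded in 1536-well plates and dosed by pin tool the next day, with either a single drug or a fixed anchor-drug dose combined with five library-drug doses (not always all listed) spaced in √10 steps. Five days later, one step fixed the cells and stained their nuclei (final 0.05% Triton X-100, 1% formaldehyde, 1 ug/ml Hoechst), and nuclei were counted on 4× images. Relative viability is the nuclei count in treated wells divided by the count in vehicle wells, and each value is the median of duplicate plates.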

Vorinostat + Linsitinib = compound: O=C(CCCCCCC(=O)Nc1ccccc1)NO [Vorinostat] + C[C@]1(O)C[C@@H](c2nc(-c3ccc4ccc(-c5ccccc5)nc4c3)c3c(N)nccn32)C1 [Linsitinib] (partner 1 µM)
In short: as §1

Vorinostat + Tozasertib = compound: O=C(CCCCCCC(=O)Nc1ccccc1)NO [Vorinostat] + Cc1cc(Nc2cc(N3CCN(C)CC3)nc(Sc3ccc(NC(=O)C4CC4)cc3)n2)n[nH]1 [Tozasertib] (partner 0.1 µM)
In short: as §1

Vorinostat + Decitabine = compound: O=C(CCCCCCC(=O)Nc1ccccc1)NO [Vorinostat] + Nc1ncn([C@H]2C[C@H](O)[C@@H](CO)O2)c(=O)n1 [Decitabine] (partner 2 µM)
In short: as §1

Vorinostat + Palbociclib = compound: O=C(CCCCCCC(=O)Nc1ccccc1)NO [Vorinostat] + CC(=O)c1c(C)c2cnc(Nc3ccc(N4CCNCC4)cn3)nc2n(C2CCCC2)c1=O [Palbociclib] (partner 0.5 µM)
In short: as §1

Cell Line	relative viability (Vorinostat + Dasatinib; first compound 0.253 µM)	relative viability (Vorinostat + Dasatinib; first compound 0.8 µM)	relative viability (Vorinostat + Dasatinib; first compound 2.53 µM)	relative viability (Vorinostat + Dasatinib; first compound 8 µM)	relative viability (Vorinostat + Linsitinib; first compound 0.253 µM)	relative viability (Vorinostat + Linsitinib; first compound 0.8 µM)	relative viability (Vorinostat + Linsitinib; first compound 2.53 µM)	relative viability (Vorinostat + Linsitinib; first compound 8 µM)	relative viability (Vorinostat + Tozasertib; first compound 0.253 µM)	relative viability (Vorinostat + Tozasertib; first compound 0.8 µM)	relative viability (Vorinostat + Tozasertib; first compound 2.53 µM)	relative viability (Vorinostat + Tozasertib; first compound 8 µM)	relative viability (Vorinostat + Decitabine; first compound 0.253 µM)	relative viability (Vorinostat + Decitabine; first compound 0.8 µM)	relative viability (Vorinostat + Decitabine; first compound 2.53 µM)	relative viability (Vorinostat + Decitabine; first compound 8 µM)	relative viability (Vorinostat + Palbociclib; first compound 0.253 µM)	relative viability (Vorinostat + Palbociclib; first compound 0.8 µM)	relative viability (Vorinostat + Palbociclib; first compound 2.53 µM)	relative viability (Vorinostat + Palbociclib; first compound 8 µM)
COR-L23	0.501	0.291	0.0778	0.0572	0.899	0.468	0.0916	0.0663	0.19	0.0976	0.105	0.0594	0.373	0.301	0.136	0.0929	0.281	0.19	0.0948	0.0728
HARA	0.311	0.238	0.18	0.0565	1.13	0.948	0.254	0.101	0.139	0.104	0.0618	0.0739	0.468	0.367	0.194	0.0814	0.32	0.295	0.184	0.133
LU99A	0.607	0.591	0.242	0.172	0.429	0.465	0.27	0.117	0.299	0.259	0.208	0.213	0.949	0.702	0.389	0.156	0.389	0.375	0.272	0.104
LXF-289	0.316	0.347	0.226	0.0398	1.03	0.994	0.391	0.108	0.209	0.165	0.0836	0.0447	0.328	0.37	0.229	0.0489	0.65	0.599	0.476	0.0862
NCI-H2087	0.94	0.553	0.124	0.0691	0.974	1.03	0.474	0.159	0.262	0.14	0.0617	0.0825	0.271	0.207	0.105	0.051	0.277	0.107	0.0624	0.0734
NCI-H647	0.18	0.233	0.0551	0.0337	1.24	0.959	0.294	0.0525	0.279	0.183	0.078	0.0319	0.356	0.286	0.137	0.0323	0.453	0.158	0.0854	0.0249
NCI-H1915	0.324	0.24	0.164	0.108	1.12	1.03	0.587	0.113	0.426	0.267	0.118	0.104	0.278	0.254	0.174	0.106	0.563	0.436	0.167	0.0832
HCC-15	0.748	0.589	0.225	0.06	0.87	0.917	0.514	0.0962	0.294	0.219	0.101	0.0559	0.69	0.521	0.2	0.0924	0.748	0.688	0.281	0.101
NCI-H1666	0.881	0.698	0.422	0.266	0.864	0.707	0.33	0.227	0.499	0.346	0.307	0.259	0.703	0.654	0.548	0.329	0.634	0.576	0.523	0.511
UMC-11	0.423	0.258	0.121	0.0971	1	0.6	0.164	0.0865	0.195	0.164	0.147	0.129	0.613	0.402	0.179	0.134	0.356	0.233	0.179	0.116
PC-14	0.344	0.239	0.0451	0.026	1.01	0.911	0.323	0.112	0.586	0.389	0.0619	0.018	0.227	0.19	0.0705	0.06	0.56	0.351	0.0802	0.0377
NCI-H1793	0.491	0.433	0.351	0.135	0.781	0.95	0.703	0.215	0.316	0.256	0.179	0.125	0.596	0.504	0.38	0.165	0.283	0.279	0.213	0.159
NCI-H661	1.11	0.791	0.247	0.223	0.759	0.752	0.298	0.184	0.342	0.262	0.249	0.269	0.575	0.468	0.335	0.316	0.437	0.377	0.286	0.32
RERF-LC-KJ	0.817	0.543	0.212	0.24	0.983	0.855	0.694	0.168	0.442	0.318	0.262	0.213	0.79	0.614	0.184	0.254	1.09	0.929	0.333	0.211
201T	0.578	0.503	0.381	0.221	1.04	0.932	0.825	0.363	0.742	0.534	0.334	0.203	0.845	0.874	0.679	0.266	0.363	0.357	0.379	0.242
NCI-H2085	0.24	0.252	0.223	0.225	0.818	0.804	0.621	0.243	0.771	0.651	0.376	0.311	0.569	0.554	0.379	0.281	0.464	0.419	0.302	0.172
